The text below walks through data of US12559506B2, “Indazole based compounds and associated methods of use” (Arvinas Operations, Inc., priority 2021, dated 2026).

The test has as its target T1, LRRK2 (endogenous, HiBit tagged) (Homo sapiens, UniProt Q5S007).
T1 construct: endogenous in cells; host or cells: HEK293 cells with HiBit knock-in at the endogenous LRRK2 locus, stably expressing firefly luciferase
Nature of the test: Endogenous LRRK2 degradation assay, endogenous gene C-terminally HiBit-tagged in HEK293 cells (Nano-Glo Dual Luciferase). Type of test: cell-based. Particulars: endogenous HiBit-tagged LRRK2 in HEK293 cells. The procedure, abridged:
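LRRK2-HiBit quantified via Nano-Glo Dual Luciferase in HEK293 knock-in cells co-expressing firefly luciferase, after 24 h exposure to compound (1 μM final top, 1:3, 11 points). Values normalised to DMSO median per plate and curve-fitted; Alamar Blue viability run alongside.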

Setting [1] is: 24 hours treatment, read-out: Endogenous WT DC50.
Where [2] appears, read: 24 hours treatment, read-out: Endogenous WT Dmax.
The mark [3] stands for this setting: 24 hours treatment, read-out: **Endogenous WT Dmax (%).
Setting [4] is: 24 hours treatment, read-out: *Endogenous WT DC50.

Structures are written as SMILES. Read-outs that look alike come from different tables or passages of the source.

T1 sequence (Q5S007 whole entry): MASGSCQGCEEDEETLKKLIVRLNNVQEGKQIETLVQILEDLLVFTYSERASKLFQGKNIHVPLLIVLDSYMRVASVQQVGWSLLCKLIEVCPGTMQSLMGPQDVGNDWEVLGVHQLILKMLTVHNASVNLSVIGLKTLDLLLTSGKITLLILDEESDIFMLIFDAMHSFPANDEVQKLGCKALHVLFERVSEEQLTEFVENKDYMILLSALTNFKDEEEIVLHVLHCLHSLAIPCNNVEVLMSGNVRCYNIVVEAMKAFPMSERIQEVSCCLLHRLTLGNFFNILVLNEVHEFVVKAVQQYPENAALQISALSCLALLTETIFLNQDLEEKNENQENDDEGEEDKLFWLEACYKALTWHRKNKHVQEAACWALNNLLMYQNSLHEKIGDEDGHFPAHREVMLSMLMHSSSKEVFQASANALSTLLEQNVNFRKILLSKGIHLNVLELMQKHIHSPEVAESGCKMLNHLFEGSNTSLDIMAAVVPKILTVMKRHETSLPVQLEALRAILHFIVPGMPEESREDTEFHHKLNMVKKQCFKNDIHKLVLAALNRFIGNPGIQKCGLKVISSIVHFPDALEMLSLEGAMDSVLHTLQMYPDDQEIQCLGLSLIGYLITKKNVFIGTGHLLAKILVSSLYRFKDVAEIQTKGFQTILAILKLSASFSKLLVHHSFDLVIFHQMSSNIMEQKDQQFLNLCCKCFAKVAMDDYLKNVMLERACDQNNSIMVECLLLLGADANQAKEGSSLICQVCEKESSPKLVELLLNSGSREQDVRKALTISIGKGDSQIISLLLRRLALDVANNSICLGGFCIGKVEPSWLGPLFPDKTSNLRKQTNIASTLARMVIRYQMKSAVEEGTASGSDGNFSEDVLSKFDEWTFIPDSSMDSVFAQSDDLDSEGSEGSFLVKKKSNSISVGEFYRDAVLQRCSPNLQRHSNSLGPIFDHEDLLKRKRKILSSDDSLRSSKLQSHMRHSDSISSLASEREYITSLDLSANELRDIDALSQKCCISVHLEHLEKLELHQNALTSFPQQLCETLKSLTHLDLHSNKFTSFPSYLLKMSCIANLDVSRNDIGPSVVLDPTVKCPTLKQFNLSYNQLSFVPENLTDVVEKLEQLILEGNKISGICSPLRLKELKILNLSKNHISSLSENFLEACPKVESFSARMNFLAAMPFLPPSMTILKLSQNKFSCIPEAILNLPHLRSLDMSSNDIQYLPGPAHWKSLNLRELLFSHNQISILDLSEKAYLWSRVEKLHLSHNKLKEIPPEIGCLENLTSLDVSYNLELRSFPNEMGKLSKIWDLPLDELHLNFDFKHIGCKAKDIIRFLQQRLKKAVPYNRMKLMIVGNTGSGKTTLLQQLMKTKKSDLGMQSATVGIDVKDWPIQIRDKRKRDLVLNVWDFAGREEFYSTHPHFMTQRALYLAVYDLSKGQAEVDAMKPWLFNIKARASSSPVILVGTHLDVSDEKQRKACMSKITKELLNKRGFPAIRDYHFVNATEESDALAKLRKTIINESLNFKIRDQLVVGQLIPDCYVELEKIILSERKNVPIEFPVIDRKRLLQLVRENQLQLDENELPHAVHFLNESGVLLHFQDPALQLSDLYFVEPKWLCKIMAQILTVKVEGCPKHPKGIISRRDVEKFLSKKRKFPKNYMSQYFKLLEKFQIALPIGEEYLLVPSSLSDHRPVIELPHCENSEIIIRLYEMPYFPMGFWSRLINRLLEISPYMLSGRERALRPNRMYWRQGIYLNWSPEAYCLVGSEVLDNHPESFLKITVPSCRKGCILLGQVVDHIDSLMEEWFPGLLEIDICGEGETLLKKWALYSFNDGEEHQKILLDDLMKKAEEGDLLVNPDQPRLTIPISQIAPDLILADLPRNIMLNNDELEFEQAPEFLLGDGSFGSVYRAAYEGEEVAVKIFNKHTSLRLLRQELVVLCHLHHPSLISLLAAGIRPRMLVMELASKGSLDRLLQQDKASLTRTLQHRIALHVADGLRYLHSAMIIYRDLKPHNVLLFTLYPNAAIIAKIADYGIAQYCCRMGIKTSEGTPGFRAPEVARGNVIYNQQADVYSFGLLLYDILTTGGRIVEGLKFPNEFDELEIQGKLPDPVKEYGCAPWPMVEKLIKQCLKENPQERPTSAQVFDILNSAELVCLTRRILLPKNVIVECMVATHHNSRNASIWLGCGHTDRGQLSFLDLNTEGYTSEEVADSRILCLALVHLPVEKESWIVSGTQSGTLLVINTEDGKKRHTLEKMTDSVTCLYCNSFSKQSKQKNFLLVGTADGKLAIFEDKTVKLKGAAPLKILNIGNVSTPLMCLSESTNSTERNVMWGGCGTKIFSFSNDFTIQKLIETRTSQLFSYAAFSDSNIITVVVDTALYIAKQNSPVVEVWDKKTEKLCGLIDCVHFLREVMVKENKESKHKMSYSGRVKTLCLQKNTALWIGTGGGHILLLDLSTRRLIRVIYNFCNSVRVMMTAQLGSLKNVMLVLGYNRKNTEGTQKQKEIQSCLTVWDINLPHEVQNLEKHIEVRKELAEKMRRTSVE

In the case of `CC1(Oc2ccc3n[nH]c(-c4cc(N5CCN(C[C@H]6CC[C@H](OC7CCN(c8ccc9c(c8F)CN(C8CCC(=O)NC8=O)C9=O)CC7)CC6)CC5)ncn4)c3c2)CC1` (stereo partly drawn) [Compound 234, 3-[4-fluoro-5-[4-[4-[[4-[6-[5-(1-methylcyclopropoxy)-2H-indazol-3-yl]pyrimidin-4-yl]piperazin-1-yl]methyl]cyclohexoxy]-1-piperidyl]-1-oxo-isoindolin-2-yl]piperidine-2,6-dione], the DC50 under setting [1] is below 10 nM. For the same compound, the greatest degradation seen (Dmax) under setting [2] is 50 to 70%.
For the compound `CC1(Oc2ccc3n[nH]c(-c4cc(N5CCC(O[C@H]6C[C@H](CN7CCN(c8ccc9c(c8F)CN(C8CCC(=O)NC8=O)C9=O)CC7)C6)CC5)ncn4)c3c2)CC1` (stereo partly drawn) [Compound 351, 3-[4-fluoro-1-oxo-5-(4-{[(1r,3r)-3-[(1-{6-[5-(1-methylcyclopropoxy)-2H-indazol-3-yl]pyrimidin-4-yl}piperidin-4-yl)oxy]cyclobutyl]methyl}piperazin-1-yl)-2,3-dihydro-1H-isoindol-2-yl]piperidine-2,6-dione], the Dmax under setting [3] was in the range of 50 to 70%. The DC50 under setting [4] was below 10 nM.
Regarding `CC1(Oc2ccc3n[nH]c(-c4cc(N5CCN(C[C@H]6CO[C@H](CN7CCN(c8ccc9c(c8F)CN(C8CCC(=O)NC8=O)C9=O)CC7)CO6)CC5)ncn4)c3c2)CC1` (stereo partly drawn) [Compound 296, 3-[4-fluoro-5-(4-{[(2r,5s)-5-[(4-{6-[5-(1-methylcyclopropoxy)-2H-indazol-3-yl]pyrimidin-4-yl}piperazin-1-yl)methyl]-1,4-dioxan-2-yl]methyl}piperazin-1-yl)-1-oxo-2,3-dihydro-1H-isoindol-2-yl]piperidine-2,6-dione], under setting [3], the Dmax was 50 to 70%. The DC50 under setting [4] was below 10 nM.
The matching figures for `COc1c(N2CCC(CN3CCN(C[C@@H]4CCN(c5cc(-c6n[nH]c7ccc(OC8(C)CC8)cc67)ncn5)C4)CC3)CC2)ccc2c1CN(C1CCC(=O)NC1=O)C2=O` (stereo partly drawn) [Compound 311, 3-(4-methoxy-5-{4-[(4-{[(3S)-1-{6-[5-(1-methylcyclopropoxy)-1H-indazol-3-yl]pyrimidin-4-yl}pyrrolidin-3-yl]methyl}piperazin-1-yl)methyl]piperidin-1-yl}-1-oxo-2,3-dihydro-1H-isoindol-2-yl)piperidine-2,6-dione]: 50 to 70% and below 10 nM.
In the case of `C[C@H]1CN(CC2CCN(c3ccc4c(c3F)CN(C3CCC(=O)NC3=O)C4=O)CC2)CCN1CC1CCN(c2cc(-c3n[nH]c4cnc(OC5(C)CC5)cc34)ncn2)CC1` (stereo partly drawn) [Compound 266, 3-[4-fluoro-5-(4-{[(3S)-3-methyl-4-[(1-{6-[5-(1-methylcyclopropoxy)-1H-pyrazolo[3,4-c]pyridin-3-yl]pyrimidin-4-yl}piperidin-4-yl)methyl]piperazin-1-yl]methyl}piperidin-1-yl)-1-oxo-2,3-dihydro-1H-isoindol-2-yl]piperidine-2,6-dione], the Dmax under setting [3] is at least 70%. Further, the DC50 under setting [4] is below 10 nM.
With `COc1c(N2CCC(CN3CCN(CC4CCN(c5cc(-c6n[nH]c7ccc(OC8(C)CC8)cc67)ncn5)CC4)C[C@@H]3C)CC2)ccc2c1CN(C1CCC(=O)NC1=O)C2=O` (stereo partly drawn) [Compound 264, 3-[4-methoxy-5-(4-{[(2S)-2-methyl-4-[(1-{6-[5-(1-methylcyclopropoxy)-1H-indazol-3-yl]pyrimidin-4-yl}piperidin-4-yl)methyl]piperazin-1-yl]methyl}piperidin-1-yl)-1-oxo-2,3-dihydro-1H-isoindol-2-yl]piperidine-2,6-dione], the Dmax under setting [3] was at least 70%. Besides, the DC50 under setting [4] is below 10 nM.
On to `C[C@H]1CN(CC2CCN(c3cc(-c4n[nH]c5ccc(OC6(C)CC6)cc45)ncn3)CC2)CCN1CC1CCN(c2ccc3c(c2F)CN(C2CCC(=O)NC2=O)C3=O)CC1` (stereo partly drawn) [Compound 222, 3-[4-fluoro-5-(4-{[(2S)-2-methyl-4-[(1-{6-[5-(1-methylcyclopropoxy)-1H-indazol-3-yl]pyrimidin-4-yl}piperidin-4-yl)methyl]piperazin-1-yl]methyl}piperidin-1-yl)-1-oxo-2,3-dihydro-1H-isoindol-2-yl]piperidine-2,6-dione], for which the DC50 under setting [1] is below 10 nM. The Dmax under setting [2] was at least 70%.
Take `CC1(Oc2ccc3n[nH]c(-c4cc(N5CCN(C[C@H]6C[C@H](CN7CCN(c8ccc9c(c8F)CN(C8CCC(=O)NC8=O)C9=O)CC7)C6)CC5)ncn4)c3c2)CC1` (stereo partly drawn) [Compound 334, 3-[4-fluoro-1-oxo-5-(4-{[(1r,3r)-3-[(4-{6-[5-(1-methylcyclopropoxy)-2H-indazol-3-yl]pyrimidin-4-yl}piperazin-1-yl)methyl]cyclobutyl]methyl}piperazin-1-yl)-2,3-dihydro-1H-isoindol-2-yl]piperidine-2,6-dione]: the Dmax under setting [3] fell in the range of 50 to 70%. Further, the DC50 under setting [4] was below 10 nM.
`CC1(Oc2ccc3n[nH]c(-c4cc(N5CCC(O[C@H]6CC[C@H](CN7CCN(c8cc9c(cc8F)C(=O)N(C8CCC(=O)NC8=O)C9)CC7)CC6)CC5)ncn4)c3c2)CC1` (stereo partly drawn) [Compound 208, 3-[6-fluoro-5-[4-[[4-[[1-[6-[5-(1-methylcyclopropoxy)-2H-indazol-3-yl]pyrimidin-4-yl]-4-piperidyl]oxy]cyclohexyl]methyl]piperazin-1-yl]-1-oxo-isoindolin-2-yl]piperidine-2,6-dione]: under setting [1], the DC50 is below 10 nM. Under setting [2], the Dmax lay within 50 to 70%.
As to `CC1(Oc2ccc3n[nH]c(-c4cc(N5CCC(COC6CCN(C(=O)C7CCN(c8ccc9c(c8)C(=O)N(C8CCC(=O)NC8=O)C9=O)CC7)CC6)CC5)ncn4)c3c2)CC1` (stereo not drawn) [Compound 62, 2-(2,6-dioxo-3-piperidyl)-5-[4-[4-[[1-[6-[5-(1-methylcyclopropoxy)-2H-indazol-3-yl]pyrimidin-4-yl]-4-piperidyl]methoxy]piperidine-1-carbonyl]-1-piperidyl]isoindoline-1,3-dione], the Dmax (24 hours, read-out: **Endogenous WT Dmax (%)) is at least 70%. For the same compound, where the note is “24 hours, read-out: *Endogenous WT DC50”, the DC50 is below 10 nM.
For the compound `CC1(Oc2ccc3n[nH]c(-c4cc(N5CCC(O[C@H]6C[C@H](N7CC[C@@H](c8ccc9c(c8F)CN(C8CCC(=O)NC8=O)C9=O)[C@@H](F)C7)C6)CC5)ncn4)c3c2)CC1` (stereo partly drawn) [Compound 297, 3-{4-fluoro-5-[(3r,4s)-3-fluoro-1-[(1r,3r)-3-[(1-{6-[5-(1-methylcyclopropoxy)-2H-indazol-3-yl]pyrimidin-4-yl}piperidin-4-yl)oxy]cyclobutyl]piperidin-4-yl]-1-oxo-2,3-dihydro-1H-isoindol-2-yl}piperidine-2,6-dione], the Dmax under setting [3] lay within 50 to 70%. Moreover, under setting [4], the DC50 was below 10 nM.
As for `CC1(Oc2ccc3n[nH]c(-c4cc(N5CCC(O[C@H]6CC[C@H](OC7CCN(c8ccc9c(c8F)CN(C8CCC(=O)NC8=O)C9=O)CC7)C6)CC5)ncn4)c3c2)CC1` (mixture of isomers) [Compound 240, 3-[4-fluoro-5-[4-[(1S,3S)-3-[[1-[6-[5-(1-methylcyclopropoxy)-2H-indazol-3-yl]pyrimidin-4-yl]-4-piperidyl]oxy]cyclopentoxy]-1-piperidyl]-1-oxo-isoindolin-2-yl]piperidine-2,6-dione and 3-[4-fluoro-5-[4-[(1R,3R)-3-[[1-[6-[5-(1-methylcyclopropoxy)-2H-indazol-3-yl]pyrimidin-4-yl]-4-piperidyl]oxy]cyclopentoxy]-1-piperidyl]-1-oxo-isoindolin-2-yl]piperidine-2,6-dione], the DC50 under setting [1] is below 10 nM. In addition, under setting [2], the Dmax was in the range of 50 to 70%.
